Data: patent US5656651A, “Androgenic directed compositions” (Biophysica Inc., priority 1995, dated 1997)
“And” between values parts separate entries of the source, which are not always exact repeats. Equal entries are not always repeated. Where two headings read alike, the source gives them in different places.

Assays:
[1] = test system: MCF-7/ADR Human Breast (adriamycin resistant); assay: Inhibition of cell proliferation at 72 hours, MCF-7/ADR; type: cell-based; details: NCI/ADR-RES, MCF-7/ADR (adriamycin resistant)
Method: (§1) All compounds were screened on a panel of normal and cancer human cell lines, including human prostate cancer cell lines, PC-3, DU-145, and LnCAP.
(§2) Cells (10^4 /well) were plated on 96 well plates with the following controls: no cells and toxic control (1×10^-3 M sodium dodecyl sulfate (SDS). The drug was diluted in ethanol and added directly to the wells. Plates were incubated at 37° C. under 5% carbon dioxide in sterile air, in a humidified incubator for 72 hours. A solution (50 μl of 2,3-bis-(methoxy-4-nitro-5-sulfophenyl)-5-[(phenylamino)carbonyl]-2H-tetrazolium hydroxide (XTT), 1 mg/mL) in phosphate buffered saline (PBS, 100 mM) was added to each well, In the presence of viable cells, this colorless clear solution is enzymatically transformed to give a pink coloration, read at 450 nm using a microplate reader (Molecular Devices Thermomax). The inhibition of cell growth was measured by hemocytometer, counting cell viability. (Table I)

[2] = test system: HLF-1 Normal Lung Diploid; assay: Inhibition of cell proliferation at 72 hours, HLF-1; type: cell-based; details: Homo sapiens, HLF1
Method: as §1, §2

[3] = test system: Ln CAP Human Prostate (with androgen receptors); assay: Inhibition of cell proliferation at 72 hours, Ln CAP; type: cell-based; details: LNCaP
Method: as §1, §2

Ovcar 3 Human Ovary = assay: Inhibition of cell proliferation at 72 hours, Ovcar 3; type: cell-based; details: Ovcar 3, 72 hours
Method: as §1, §2

L-1210 Mouse Leukemia = assay: Inhibition of cell proliferation at 72 hours, L-1210; type: cell-based; details: L1210, L-1210, 72 hours
[4] = test system: CHO Chinese Hamster Ovary; assay: Inhibition of cell proliferation at 72 hours, CHO; type: cell-based; details: Cricetulus griseus
[5] = test system: PC-3 Human Prostate (few androgen receptors); assay: Inhibition of cell proliferation at 72 hours, PC-3; type: cell-based; details: PC-3, 72 hours
Method: as §1, §2

PC-3 human cell line = assay: Relative growth inhibition after 6 days; type: cell-based; details: for activity at 10 µM: Homo sapiens, read-out: No. of cells remaining expressed as a % of control
Method: as §1
as §2, with “Plates were incubated at 37° C. under 5% carbon dioxide in sterile air, in a humidified incubator for 72 hours.” left out

[6] = test system: DU-145 Human Prostate (receptor poor); assay: Inhibition of cell proliferation at 72 hours, DU-145; type: cell-based; details: DU-145, 72 hours
Method: as §1, §2

[7] = test system: Molt-4 Human T-cell Leukemia; assay: Inhibition of cell proliferation at 72 hours, Molt-4; type: cell-based; details: Molt-4, 72 hours
Method: as §1, §2

[8] = test system: NH DF Normal Dermal Fibroblast; assay: Inhibition of cell proliferation at 72 hours, NH DF; type: cell-based; details: Homo sapiens, NHDF
Method: as §1, §2

MCF-7 Human Breast = assay: Inhibition of cell proliferation at 72 hours, MCF-7; type: cell-based; details: MCF7, MCF-7, 72 hours
Method: as §1, §2

[9] = test system: panel of normal and cancer human cell lines; assay: Cytotoxicity screen on panel of normal and cancer cell lines; type: cell-based
Method: as §1, §2

glucocorticoid receptors = details: background statement; cited from earlier work
progestin receptors = details: background statement; cited from earlier work
human androgen receptors [10] = target: T1, human androgen receptors (Homo sapiens, UniProt P10275); assay: Androgen activity of anti-androgens in CVI-3.9.2 cells (CAT activity); type: cell-based
T1 construct: expressed in transfected cells; host or cells: CV-1 monkey cells (clone CV1-3.9.2)
T1 sequence (P10275 whole entry): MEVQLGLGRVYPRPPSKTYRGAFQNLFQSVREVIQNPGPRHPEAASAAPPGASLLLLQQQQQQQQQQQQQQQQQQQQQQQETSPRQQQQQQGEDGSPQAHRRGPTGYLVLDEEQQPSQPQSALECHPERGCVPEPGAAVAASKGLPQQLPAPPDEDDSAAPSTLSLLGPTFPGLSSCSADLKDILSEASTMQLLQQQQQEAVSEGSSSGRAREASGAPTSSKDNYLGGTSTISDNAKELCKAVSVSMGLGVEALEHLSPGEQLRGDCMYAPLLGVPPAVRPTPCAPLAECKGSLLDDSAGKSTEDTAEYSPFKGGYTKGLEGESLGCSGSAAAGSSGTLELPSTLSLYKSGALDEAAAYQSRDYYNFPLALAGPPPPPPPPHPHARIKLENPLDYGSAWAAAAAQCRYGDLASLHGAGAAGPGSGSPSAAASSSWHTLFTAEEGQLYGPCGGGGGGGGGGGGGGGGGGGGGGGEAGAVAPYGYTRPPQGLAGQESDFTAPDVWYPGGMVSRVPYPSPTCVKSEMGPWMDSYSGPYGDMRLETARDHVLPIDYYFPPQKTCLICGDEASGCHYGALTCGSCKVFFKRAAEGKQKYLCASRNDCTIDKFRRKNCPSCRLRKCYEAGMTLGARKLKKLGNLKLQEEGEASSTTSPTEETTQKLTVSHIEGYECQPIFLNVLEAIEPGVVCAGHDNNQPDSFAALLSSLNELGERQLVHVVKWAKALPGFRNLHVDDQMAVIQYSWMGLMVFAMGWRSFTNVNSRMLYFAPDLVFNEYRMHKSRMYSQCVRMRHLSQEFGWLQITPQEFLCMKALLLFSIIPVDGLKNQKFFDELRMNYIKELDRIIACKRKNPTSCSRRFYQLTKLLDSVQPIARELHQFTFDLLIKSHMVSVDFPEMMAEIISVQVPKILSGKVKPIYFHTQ
Method: (§3) The androgenic and anti-androgenic activity of the current and novel compounds was tested in a specific assay described by Fuhrman et al. [J. Steroid Biochem. Molec. […] This assay uses CV-1 cells derived from monkeys transfected with human androgen receptors.

human androgen receptors [11] = target: T1, human androgen receptors; assay: Transactivation assay, anti-androgenic potency, CV1-3.9.2 cells; type: cell-based; details: stimulation with 0.1 nM testosterone
Method: as §3

androgen receptors = details: background statement; cited from earlier work
[12] = 10^-5 M, cell density 10^4/well

Compound CC(=O)O[C@H]1C(=O)[C@]2(C)[C@@H](OC(=O)NCCN3C(=S)N(c4ccc(C#N)c(C(F)(F)F)c4)C(=O)C3(C)C)C[C@H]3OC[C@@]3(OC(C)=O)[C@H]2[C@H](OC(=O)c2ccccc2)[C@]2(O)C[C@H](OC(=O)[C@H](O)[C@@H](NC(=O)c3ccccc3)c3ccccc3)C(C)=C1C2(C)C [BP-196, 7-{imidazolidinyl-5",5"-dimethyl-4"-oxo-3"-[4"'-cyano-3'"-trifluoromethylphenyl-imidazolidinyl]-2"-thioxo-1"-ethylcarbamoxy}paclitaxel] has an IC50 [1] of 10 µM, an IC50 [2] of 8.06 µM and an IC50 [3] of 0.131 µM. It also gave an IC50 (Ovcar 3 Human Ovary) of 0.05 µM, an IC50 (L-1210 Mouse Leukemia) of 0.97 µM and an IC50 [4] of 8.76 µM. The IC50 [5] was 0.0372 µM, the “Observation (relative growth inhibition)” value (PC-3 human cell line; 10^-5 M, after 6 days, cell density 10^4/well) was “cytotoxic cell death” and the activity at 10 µM (PC-3 human cell line; [12]) was ~100%. For the same compound, the IC50 [6] was 0.867 µM, the IC50 [7] was 0.147 µM and the IC50 [8] was 0.107 µM. The IC50 (MCF-7 Human Breast) was 0.989 µM and the “toxicity vis-a-vis normal cells” value ([9]; normal cells) was “quite high”.

In the case of CC(=O)O[C@]1(C(C)=O)CC[C@H]2[C@@H]3C=C(Cl)C4=CC(=O)[C@@H]5C[C@@H]5[C@]4(C)[C@H]3CC[C@@]21C [Cyproterone Acetate], the “binding to glucocorticoid receptors” value (glucocorticoid receptors) is listed as “binds to the glucocorticoid and progestin receptors” and the “binding to progestin receptors” value (progestin receptors) is listed as “binds to the glucocorticoid and progestin receptors”.

In the case of C[C@]1(O)CC[C@H]2[C@@H]3CCC4=CC(=O)CCC4=C3C=C[C@@]21C [R1881, reference compound], the “CAT Activity” value (human androgen receptors [10]) is reported as 5400 cpm and 5600 cpm and 6700 cpm.

With CC1(C)C(=O)N(c2ccc(C#N)c(C(F)(F)F)c2)C(=S)N1CCc1c[nH]cn1 [BP-213] the activity at 10 µM (PC-3 human cell line; [12]) was ~40%.

With CC1(C)C(=O)N(c2ccc(C#N)c(C(F)(F)F)c2)C(=S)N1CCN [BP138, 4-[3-(2'-aminoethyl) 4,4-dimethyl-5-oxo-2-thioxo-1-imidazolidinyl]-2-trifluoromethyl-benzonitrile] the IC50 (human androgen receptors [11]) was 0.139 µM and the “CAT Activity” value (human androgen receptors [10]; 1 μM) was 1600 cpm.

For CC1(C)OCC(CN2C(=S)N(c3ccc(C#N)c(C(F)(F)F)c3)C(=O)C2(C)C)O1 (centres unmarked) [BP134, 4-[4,4-dimethyl-3-[2',2'-dimethyl-1',3'-dioxolane-4'-methyl)-5-oxo-2-thioxo-1-imidazolidinyl]-2-trifluoromethyl-benzonitrile], the IC50 (human androgen receptors [11]) was 0.021 µM and the “CAT Activity” value (human androgen receptors [10]; 1 μM) was 1600 cpm.

With CC(C)(C)OC(=O)NCCN1C(=S)N(c2ccc(C#N)c(C(F)(F)F)c2)C(=N)C1(C)C [BP136, 4-[3-(2'-(N-t-butoxycarbonyl)-aminoethyl)-4,4-dimethyl-5-imino-2-thioxo-1-imidazolidinyl]-2-trifluoromethyl-benzonitrile] the IC50 (human androgen receptors [11]) was 0.2 µM and the “CAT Activity” value (human androgen receptors [10]; 1 μM) was 1800 cpm.

In the case of CC1(C)OCC(CN2C(=S)N(c3ccc(C#N)c(C(F)(F)F)c3)C(=N)C2(C)C)O1 (centres unmarked) [BP163, 4-[4,4-dimethyl-3-(2',2'-dimethyl-1',3'-dioxolane-4'-methyl)-5-imino-2-thioxo-1-imidazolidinyl]-2-trifluoromethyl-benzonitrile], the IC50 (human androgen receptors [11]) is reported as 0.217 µM and the “CAT Activity” value (human androgen receptors [10]; 1 μM) is reported as 2100 cpm.

With CC(=O)NCCN1C(=S)N(c2ccc(C#N)c(C(F)(F)F)c2)C(=O)C1(C)C [BP139, 4-[3-(2'-N-acetylaminoethyl)-4,4-dimethyl-5-oxo-2-thioxo-1-imidazolidinyl]-2-trifluoromethyl-benzonitrile] the IC50 (human androgen receptors [11]) was 0.239 µM and the “CAT Activity” value (human androgen receptors [10]; 1 μM) was 1500 cpm.

C=CCN1C(=S)N(c2ccc(C#N)c(C(F)(F)F)c2)C(=O)C1(C)C [BP-82, 4-[4,4-dimethyl-5-oxo-3-(2'-propenyl)-2-thioxo-1-imidazolidinyl]-2-trifluoromethyl-benzonitrile] gave an IC50 [1] of 15.1 µM, an IC50 [2] of 39 µM and an IC50 [3] of 66 µM. It also gave an IC50 (Ovcar 3 Human Ovary) of 96.5 µM, an IC50 (L-1210 Mouse Leukemia) of 25 µM and an IC50 (human androgen receptors [11]) of ~0.0065 µM. It also gave an IC50 [4] of 34.5 µM, an IC50 [5] of 31.5 µM and an activity at 10 µM (PC-3 human cell line; [12]) of ~70%. For the same compound, the “cytostatic effect in PC-3 human cell line” value (PC-3 human cell line; PC-3, Table II) was “cytostatic effect”, the IC50 [6] was 13.9 µM and the “CAT Activity” value (human androgen receptors [10]; 1 μM) was 1300 cpm. It also gave an IC50 [7] of 48.8 µM, an IC50 [8] of 91.7 µM and an IC50 (MCF-7 Human Breast) of 50 µM.

For CC(C)(C)OC(=O)NCCN1C(=S)N(c2ccc(C#N)c(C(F)(F)F)c2)C(=O)C1(C)C [BP137, 4-[3-(2'-N-(t-butoxycarbonyl)-aminoethyl)-4,4-dimethyl-5-oxo-2-thioxo-1-imidazolidinyl]-2-trifluoromethyl-benzonitrile], the IC50 (human androgen receptors [11]) was 0.02 µM and the “CAT Activity” value (human androgen receptors [10]; 1 μM) was 2000 cpm.

For C#CCN1C(=S)N(c2ccc(C#N)c(C(F)(F)F)c2)C(=O)C1(C)C [BP-199, 4-[4,4-dimethyl-3-(2'-propynyl)-5-oxo-2-thioxo-1-imidazolidinyl]-2-trifluoromethyl-benzonitrile], the IC50 [1] was 10 µM, the IC50 [2] was > 100 µM and the IC50 [3] was 0.82 µM. For the same compound, the IC50 (Ovcar 3 Human Ovary) was > 100 µM, the IC50 (L-1210 Mouse Leukemia) was 11 µM and the IC50 (human androgen receptors [11]) was 0.015 µM. For the same compound, the IC50 [4] was 12.8 µM, the IC50 [5] was 0.132 µM and the activity at 10 µM (PC-3 human cell line; [12]) was ~50%. The IC50 [6] was 85.1 µM, the IC50 [7] was > 100 µM and the IC50 [8] was > 100 µM. The IC50 (MCF-7 Human Breast) was 100 µM, the “cytotoxicity in human prostate cancer lines containing at least some androgen receptors” value ([9]; human prostate cancer lines) was “most cytotoxic” and the “cytotoxicity in a variety of other human transformed and normal cells” value ([9]; other human transformed and normal cells) was “low cytotoxicity”.

For CC1(C)C(=O)N(c2ccc(C#N)c(C(F)(F)F)c2)C(=S)N1CCCCO [RU59063, 4-[4,4-dimethyl-3-(4-hydroxybutyl)-5-oxo-2-thioxo-1-imidazolidinyl]-2-trifluoromethyl-benzonitrile, reference compound], the IC50 (human androgen receptors [11]) was 0.023 µM and the “CAT Activity” value (human androgen receptors [10]; 1 μM) was 2600 cpm.

For CC(O)(CS(=O)(=O)c1ccc(F)cc1)C(=O)Nc1ccc(C#N)c(C(F)(F)F)c1 (centres unmarked) [Casodex], the “binding to androgen receptors (sufficiency for complete blockage)” value (androgen receptors) is given as “do not bind sufficiently to androgen receptors to achieve their complete blockage”.

In the case of CC1(C)C(=O)N(c2ccc(C#N)c(C(F)(F)F)c2)C(=S)N1CC(O)CO (centres unmarked) [BP135, 4-[3-(2',3'-dihydroxypropyl)-4,4-dimethyl-5-oxo-2-thioxo-1-imidazolidinyl]-2-trifluoromethyl-benzonitrile], the IC50 (human androgen receptors [11]) is reported as 0.158 µM and the “CAT Activity” value (human androgen receptors [10]; 1 μM) is reported as 1900 cpm.
